The values below are quoted from earlier work in patent publication US20080096915A1, “COMPOSITIONS FOR THE TREATMENT OF METABOLIC DISORDERS” (Greenberg Traurig LLP, priority 2005, published 2008).

One data set has as its system hypertensives. Also noted: dose or concentration left out as unconfirmed. The conditions noted are these: 1050 hypertensives, for three months, dose doubled in one third; decreased from 176/104.
In data set [1] the test system is patients whose blood pressure had not been normalized. The settings on record: cicletanine 50 and 100 mg per day added to calcium channel blockers, beta blockers or ACE inhibitors.
The test system of a further data set is patients. The conditions noted are these: 150-200 mg/day cicletanine, over 12 months; fell from 128.
The subject of data set [2] is Dahl salt-sensitive rats with salt-induced hypertension.
Another data set addresses sulfonylurea receptor (Homo sapiens, UniProt Q09428).
The conditions of data set [3]: in vivo.

sulfonylurea receptor, sequence (Q09428 whole entry): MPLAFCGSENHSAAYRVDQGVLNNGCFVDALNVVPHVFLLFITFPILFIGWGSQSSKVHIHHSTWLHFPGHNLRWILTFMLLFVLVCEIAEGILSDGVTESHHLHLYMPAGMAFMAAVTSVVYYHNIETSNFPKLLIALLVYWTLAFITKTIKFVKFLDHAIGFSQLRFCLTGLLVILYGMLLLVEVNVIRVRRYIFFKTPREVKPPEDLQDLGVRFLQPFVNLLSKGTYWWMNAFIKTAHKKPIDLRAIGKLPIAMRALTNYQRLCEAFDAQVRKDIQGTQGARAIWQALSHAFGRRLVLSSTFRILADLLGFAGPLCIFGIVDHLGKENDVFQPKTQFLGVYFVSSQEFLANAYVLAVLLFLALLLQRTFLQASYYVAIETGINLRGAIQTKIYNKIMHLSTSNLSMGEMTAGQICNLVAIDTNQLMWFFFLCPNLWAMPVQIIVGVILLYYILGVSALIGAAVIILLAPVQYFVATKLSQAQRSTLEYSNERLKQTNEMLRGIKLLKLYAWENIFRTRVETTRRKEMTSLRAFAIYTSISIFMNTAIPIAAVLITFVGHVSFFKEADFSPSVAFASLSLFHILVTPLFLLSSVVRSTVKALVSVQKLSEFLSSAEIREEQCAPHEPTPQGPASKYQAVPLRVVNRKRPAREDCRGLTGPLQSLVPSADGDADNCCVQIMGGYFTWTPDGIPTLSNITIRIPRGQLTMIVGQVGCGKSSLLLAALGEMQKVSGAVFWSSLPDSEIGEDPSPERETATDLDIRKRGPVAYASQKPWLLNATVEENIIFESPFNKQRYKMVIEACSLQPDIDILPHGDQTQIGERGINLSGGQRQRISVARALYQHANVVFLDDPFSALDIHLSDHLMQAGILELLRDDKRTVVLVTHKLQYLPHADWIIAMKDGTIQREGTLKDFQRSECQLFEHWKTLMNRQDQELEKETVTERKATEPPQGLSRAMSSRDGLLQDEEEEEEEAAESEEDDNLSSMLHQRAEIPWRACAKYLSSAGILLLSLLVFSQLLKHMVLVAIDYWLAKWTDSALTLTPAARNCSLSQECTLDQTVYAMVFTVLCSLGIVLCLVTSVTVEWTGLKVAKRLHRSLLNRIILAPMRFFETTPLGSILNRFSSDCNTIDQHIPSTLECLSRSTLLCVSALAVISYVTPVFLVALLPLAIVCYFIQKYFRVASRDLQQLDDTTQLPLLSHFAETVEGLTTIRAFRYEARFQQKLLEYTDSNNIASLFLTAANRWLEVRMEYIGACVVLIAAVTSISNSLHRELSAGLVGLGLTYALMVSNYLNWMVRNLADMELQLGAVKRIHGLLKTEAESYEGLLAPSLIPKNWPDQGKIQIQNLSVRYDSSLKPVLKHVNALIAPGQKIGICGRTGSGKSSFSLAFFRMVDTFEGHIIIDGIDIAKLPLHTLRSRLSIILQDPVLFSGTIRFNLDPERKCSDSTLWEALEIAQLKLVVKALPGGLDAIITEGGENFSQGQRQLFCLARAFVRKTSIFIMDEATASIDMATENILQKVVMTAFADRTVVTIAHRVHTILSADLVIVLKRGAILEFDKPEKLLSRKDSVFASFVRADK
sulfonylurea receptor, sequence (Q14654 whole entry partner): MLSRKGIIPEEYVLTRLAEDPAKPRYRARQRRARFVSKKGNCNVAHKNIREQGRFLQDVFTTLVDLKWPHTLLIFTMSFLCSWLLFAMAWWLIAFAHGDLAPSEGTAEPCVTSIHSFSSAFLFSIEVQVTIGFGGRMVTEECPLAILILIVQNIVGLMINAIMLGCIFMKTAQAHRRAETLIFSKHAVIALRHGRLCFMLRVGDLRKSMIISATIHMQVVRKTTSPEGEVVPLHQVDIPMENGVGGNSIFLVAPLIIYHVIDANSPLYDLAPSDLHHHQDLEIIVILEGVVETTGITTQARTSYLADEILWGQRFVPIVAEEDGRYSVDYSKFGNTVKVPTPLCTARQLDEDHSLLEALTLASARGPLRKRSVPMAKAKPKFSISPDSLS

With `Cc1ncc2c(c1O)COC2c1ccc(Cl)cc1` (racemic) [cicletanine, +−3-(4-chlorophenyl)-1,3-dihydro-6-methylfuro-[3,4-c]pyridin-7-ol], the “blood pressure after treatment” value with hypertensives is reported as 151/86. Further, the “patients whose blood pressure was normalized” value in data set [1] is given as 50 % of patients. In addition, the “peak insulin response to tolbutamide, following cicletanine administration” value in the data set on healthy subjects (10 healthy subjects, single intravenous tolbutamide after 7 days of cicletanine 100 mg per day) is 17.4 mU/L. In the data set with healthy subjects (after 7 days of cicletanine 100 mg per day), the “hypoglycemic effect of tolbutamide following cicletanine administration” value is on record as “did not change”. Further, in the data set on patients, the “average triglyceride level after treatment” value is 104 mg/dL. In addition, in data set [2], the “high-density lipoprotein (HDL) cholesterol” value is reported as “increased” and the “low-density lipoprotein (LDL) cholesterol” value is listed as “significantly decreased”.

As to `Cc1cnc(C(=O)NCCc2ccc(S(=O)(=O)NC(=O)NC3CCCCC3)cc2)cn1` [glipizide], the “concentration range that saturates receptors” value on sulfonylurea receptor is recorded as “low nanomolar”.

Turning to `COc1ccc(Cl)cc1C(=O)NCCc1ccc(S(=O)(=O)NC(=O)NC2CCCCC2)cc1` [glyburide], in data set [3], the plasma half-life was 4 to 11 h.

Turning to `CCCCNC(=O)NS(=O)(=O)c1ccc(C)cc1` [tolbutamide], in the data set with healthy subjects (10 healthy subjects, single intravenous dose of tolbutamide alone), the “peak insulin response to tolbutamide, before cicletanine administration” value is on record as 29.2 mU/L.
